This is an account of results in ChEMBL document CHEMBL1129777, “Novel 6-substituted 2-aminotetralins with potent and selective affinity for the dopamine D3 receptor” (Bioorg Med Chem Lett, 1996).

For one test, the target named is D(3) dopamine receptor (Homo sapiens, UniProt P35462). The test can be described thus: Binding affinity against human Dopamine receptor D3 in Chinese hamster ovary cells using [3H]spiperone. The test is classed as cell-based.
A further test concerns the target D(2) dopamine receptor (Homo sapiens, UniProt P14416). The test can be described thus: Binding affinity against human Dopamine receptor D2 in mouse LtK- cells using [3H]spiperone. It is filed as cell-based.

Chain of D(2) dopamine receptor (P14416 whole entry): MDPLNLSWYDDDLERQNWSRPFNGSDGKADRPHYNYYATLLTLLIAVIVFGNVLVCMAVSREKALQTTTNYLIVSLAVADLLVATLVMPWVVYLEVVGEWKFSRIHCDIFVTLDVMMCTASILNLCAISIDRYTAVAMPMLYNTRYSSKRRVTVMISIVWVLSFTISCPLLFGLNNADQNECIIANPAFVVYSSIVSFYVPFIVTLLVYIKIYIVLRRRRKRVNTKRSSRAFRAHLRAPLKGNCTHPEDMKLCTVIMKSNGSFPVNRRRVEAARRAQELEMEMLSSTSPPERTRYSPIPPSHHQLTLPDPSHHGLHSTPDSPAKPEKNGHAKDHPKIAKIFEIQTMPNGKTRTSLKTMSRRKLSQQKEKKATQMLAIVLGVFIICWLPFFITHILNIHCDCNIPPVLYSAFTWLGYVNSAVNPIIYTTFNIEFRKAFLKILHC
Chain of D(3) dopamine receptor (P35462 whole entry): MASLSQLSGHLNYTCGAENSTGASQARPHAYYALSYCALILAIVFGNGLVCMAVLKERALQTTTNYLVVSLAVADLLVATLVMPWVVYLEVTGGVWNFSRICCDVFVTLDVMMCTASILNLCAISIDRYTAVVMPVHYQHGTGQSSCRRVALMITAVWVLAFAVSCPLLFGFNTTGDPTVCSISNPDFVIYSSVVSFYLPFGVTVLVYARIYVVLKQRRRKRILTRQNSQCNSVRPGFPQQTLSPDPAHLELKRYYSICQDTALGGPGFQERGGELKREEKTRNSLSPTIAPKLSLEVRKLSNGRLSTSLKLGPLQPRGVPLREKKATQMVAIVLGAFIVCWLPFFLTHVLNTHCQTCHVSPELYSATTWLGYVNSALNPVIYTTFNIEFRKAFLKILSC

For the compound `CCCN(CCC)[C@@H]1CCc2c(ccc(C(O)Cc3ccc(Cl)c(Cl)c3)c2OC)C1` (stereo not given in full), the Ki (commonly the dissociation constant of the complex between target and ligand, obtained from inhibition or displacement) on D(3) dopamine receptor is 20 nM. As for `CCCN(CCC)C1CCc2cc(CCc3ccc(C(=O)OCC)cc3)ccc2C1` (stereo not given), the Ki was 2 nM at D(3) dopamine receptor and 251 nM at D(2) dopamine receptor.

In the case of `CCCN(CCC)C1CCc2cc(CCc3ccc(/C(C)=N\O)cc3)ccc2C1` (stereo not given), the Ki on D(3) dopamine receptor is 2 nM; on D(2) dopamine receptor it was 794 nM. For the compound `CCCN(CCC)C1CCc2cc(CCc3ccc(O)cc3)ccc2C1` (stereo not given), the Ki was 12.6 nM at D(3) dopamine receptor and 316 nM on D(2) dopamine receptor. In the case of `CCCN(CCC)C1CCc2cc(CCc3ccc(C(N)=O)cc3)ccc2C1` (stereo not given), affinity on D(3) dopamine receptor was put at a Ki of 631 nM.

With `CCCN(CCC)[C@@H]1CCc2c(ccc(C(O)Cc3ccccc3)c2OC)C1` (stereo not given in full), the Ki on D(3) dopamine receptor was 63.1 nM; at D(2) dopamine receptor, 1000 nM. As for `CCCN(CCC)C1CCc2cc(CCc3ccccc3)ccc2C1` (stereo not given), the Ki is 3.98 nM at D(3) dopamine receptor and 398 nM at D(2) dopamine receptor.

For `CCCN(CCC)[C@@H]1CCc2cc(CS(=O)(=O)c3ccc(I)cc3)ccc2C1`, the Ki is 0.158 nM on D(3) dopamine receptor and 200 nM at D(2) dopamine receptor. Consider `CCCN(CCC)[C@@H]1CCc2c(ccc(CCc3ccc(NS(C)(=O)=O)cc3)c2OC)C1`, for which the affinity at D(3) dopamine receptor, expressed as Ki, was 501 nM. Turning to `CCCN(CCC)C1CCc2cc(CSc3ccc(OC)cc3)ccc2C1` (stereo not given), the Ki was 1.26 nM on D(3) dopamine receptor and 200 nM on D(2) dopamine receptor.

As for `CCCN(CCC)[C@@H]1CCc2cc(CS(=O)(=O)c3ccc(OC)cc3)ccc2C1`, the results for the Ki at D(3) dopamine receptor and on D(2) dopamine receptor were 1.26 nM and 501 nM, respectively. On to `CCCN(CCC)[C@@H]1CCc2c(ccc(C(O)Cc3ccc(Cl)cc3)c2OC)[C@@H]1C` (stereo not given in full), for which the Ki on D(3) dopamine receptor is 25.1 nM; at D(2) dopamine receptor it was 631 nM. For the compound `CCCN(CCC)[C@H]1CCc2cc(CCc3ccc(Cl)cc3)ccc2C1`, the Ki at D(3) dopamine receptor is 10 nM; at D(2) dopamine receptor, 126 nM. For `CCCN(CCC)[C@@H]1CCc2c(ccc(CCc3ccc(Cl)cc3)c2OC)C1`, the Ki on D(3) dopamine receptor was 5.01 nM; at D(2) dopamine receptor, 126 nM. In the same order, the values of `CCCN(CCC)[C@@H]1CCc2cc(CCc3ccc(Cl)cc3)ccc2C1` are 3.98 nM and 398 nM.

`CCCN(CCC)[C@@H]1CCc2c(ccc(CCc3ccccc3)c2OC)C1` gave a Ki at D(3) dopamine receptor of 20 nM. In turn, `CCCN(CCC)[C@@H]1CCc2c(ccc(C(O)Cc3ccc(OC)cc3)c2OC)C1` (stereo not given in full) had a Ki on D(3) dopamine receptor of 50.1 nM. As for `CCCN(CCC)C1CCc2cc(CN(C(=O)OC)c3ccc(OC)cc3)ccc2C1` (stereo not given), the Ki on D(3) dopamine receptor was 6.31 nM; at D(2) dopamine receptor, 794 nM. Taken in the same sequence, the figures for `CCCN(CCC)[C@@H]1CCc2cc(CCc3ccc(C(C)=O)cc3)ccc2C1` were 3.16 nM and 794 nM. Taken in the same sequence, the figures for `CCCN(CCC)C1CCc2cc(CCc3ccc(C(C)=O)cc3)ccc2C1` (stereo not given) were 3.98 nM and 1000 nM.

As for `CCCN(CCC)C1CCc2cc(CCc3ccc(S(C)(=O)=O)cc3)ccc2C1` (stereo not given), the Ki on D(3) dopamine receptor was 1580 nM. Take `CCCN(CCC)[C@@H]1CCc2c(OC)cccc2[C@@H]1C`: the Ki at D(3) dopamine receptor was 12.6 nM; at D(2) dopamine receptor, 63.1 nM. `CCCN(CCC)C1CCc2cc(CS(=O)(=O)c3ccc(OC)cc3)ccc2C1` (stereo not given): the inhibition constant Ki on D(3) dopamine receptor was 1.58 nM; on D(2) dopamine receptor it was 631 nM. For `CCCN(CCC)C1CCc2cc(CCc3ccc(C(=O)O)cc3)ccc2C1` (stereo not given), affinity at D(3) dopamine receptor was put at a Ki of 3160 nM.

Regarding `CCCN(CCC)[C@@H]1CCc2cc(CCc3ccc(/C(C)=N\O)cc3)ccc2C1`, the Ki on D(3) dopamine receptor is 1 nM; at D(2) dopamine receptor, 316 nM. In the same order, the values of `CCCN(CCC)C1CCc2cc(CN(C(C)=O)c3ccc(OC)cc3)ccc2C1` (stereo not given) are 7.94 nM and 631 nM. `CCCN(CCC)C1CCc2cc(CN(C(N)=O)c3ccc(OC)cc3)ccc2C1` (stereo not given): the figures for the inhibition constant Ki on D(3) dopamine receptor and on D(2) dopamine receptor were 25.1 nM and 6310 nM, respectively. In the same order, the values of `CCCN(CCC)[C@@H]1CCc2c(ccc(CCc3ccc(C(F)(F)F)cc3)c2OC)C1` are 6.31 nM and 100 nM.

For the compound `CCCN(CCC)C1CCc2cc(CCc3ccc(OC)cc3)ccc2C1` (stereo not given), the Ki at D(3) dopamine receptor is 3.16 nM; on D(2) dopamine receptor it was 251 nM. For `CCCN(CCC)[C@@H]1CCc2c(ccc(C(O)Cc3ccc(Cl)cc3)c2OC)C1` (single isomer, unassigned; isomer I), the Ki on D(3) dopamine receptor is 6.31 nM; on D(2) dopamine receptor, 316 nM.

With `CCCN(CCC)[C@@H]1CCc2c(ccc(C(O)Cc3ccc(Cl)cc3)c2OC)C1` (stereo in doubt), the inhibition constant (Ki) at D(3) dopamine receptor was 50.1 nM; at D(2) dopamine receptor, 1260 nM.
